Reference: patent EP3498270A1, “SLOW RELEASE FORMULATIONS OF CELL CYCLE REGULATORS AND ANTI-CANCER AGENTS FOR LOCAL TREATMENT OF SOLID CANCER” (Urogen Pharma Ltd., priority 2017, dated 2019)
Like-named read-outs stand apart in the source and are kept apart here.

Assays:
RT-4 cells [1] = experiment: Cell cytotoxicity / apoptosis (Annexin V FITC and PI staining, flow cytometry); format: cell-based, human; settings: 1mM HU 20 hours, wash; for percentages of apoptotic cells: after 2 hours 10µM MMC 8 hours, 48 hours after HU withdrawal; for late apoptosis: after 2 hours Gem 5µM 8 hours, 72 hours from HU washes
Protocol: After 24 hours to 5 days from HU washes, cells were stained with Annexin V FITC and PI for identifying apoptotic cells according to standard protocols.

UMUC-3 cells [2] = experiment: as above; settings: 1mM HU 20 hours, wash, after 2 hours 10µM MMC 8 hours; 48 hours after HU withdrawal
RT-4 cells [3] = experiment: XTT cell viability assay; format: cell-based; settings: Homo sapiens, RT-4, read-out: MMC EC50 concentration value
UMUC-3 cells [4] = experiment: XTT cell viability assay; format: cell-based, human; settings: for EC50 / viability at 1000 µM: Homo sapiens
Protocol: Cells were treated with 0-16mM HU/ Control (DMSO or RPMI medium only) for up to 20 hours. […] XTT assay for cytotoxicity was then performed and plates were analyzed in an ELISA reader at wave length of 490nm.
The methods used were as described in the other examples. Briefly, UMUC-3 cells were cultured in 96 well microculture plates. Cells were pretreated with 1mM HU (or DMSO- vehicle control) for 2 hours. […] The percentage of viable cells presented in the figures and table was calculated from untreated cells with viability of 100%.

RT-4 cells [5] = experiment: Cell cycle distribution (PI staining, flow cytometry); format: cell-based, human; settings: 1mM HU for 20 hours, 4 hours from HU withdrawal
Protocol: (§1) A Cyan Flow cytometer was used for determining DNA content and cell cycle distribution of UMUC-3 and RT-4 cells. Cells were seeded in 6 well plates (10^6 cells/well) and incubated overnight. Cells were then cultured with cell cycle modulator (0.1-15mM HU or 0.25µM PD0332991) or with DMSO (vehicle control) for up to 20 hours (HU) or 24 hours (PD0332991). Then, the HU, PD0332991 (or DMSO) was washed and replaced by fresh media and cells were fixed at different time points following washes. The fixation was done by a fixation buffer that purchased from ENCO (Cayman). Minimum 2 hours after the fixation, cells were washed and labeled with propidium iodide (PI) for 15 min in the dark. Cells were analyzed by flow cytometry (PI staining was detected in FL3, […] laser).
(§2) Unless otherwise indicated, methods were as described in Example 1. In order to investigate the influence of HU on cell cycle distribution in bladder cancer cell lines, UMUC-3 and RT-4 cells were treated with 1mM HU (or DMSO for vehicle control) for 20 hours. Cell cycle distribution was observed immediately after HU exposure and 2, 4, 6, 8, and 10 hours following HU withdrawal.

UMUC-3 cells [6] = experiment: as above; format: cell-based, human
Protocol: as §1, §2

Compound	percentages of apoptotic cells (RT-4 cells [1]) [%]	percentages of apoptotic cells (UMUC-3 cells [2]) [%]	EC50 (RT-4 cells [3]) [µM]	EC50 (UMUC-3 cells [4]; UMUC3, 2 h, read-out: MMC EC50 value) [µM]	EC50 (UMUC-3 cells [4]; UMUC3, read-out: MMC EC50 concentration value) [µM]	late apoptosis (RT-4 cells [1]) [%]	percentage of cells at the S phase (RT-4 cells [5]) [%]	increase in S phase accumulation (RT-4 cells [5]; versus DMSO control)	percentage of cells at the S phase (UMUC-3 cells [6]; 1mM HU for 20 hours, 4 hours from HU withdrawal) [%]	increase in S phase accumulation (UMUC-3 cells [6]; 1mM HU for 20 hours, versus DMSO control, 4 hours from HU withdrawal)	S phase accumulation (UMUC-3 cells [6]; HU 0.5 to 4mM for 20 hours, 6 hours after the HU wash)	influence on cell cycle distribution (UMUC-3 cells [6]; HU concentrations lower than 0.1mM)	viability at 1000 µM (UMUC-3 cells [4]; UMUC3, 1mM HU 20 hours, wash, after 2 hours Gem (EC50) 8 hours) [%]	viability at 1000 µM (UMUC-3 cells [4]; UMUC3, short exposure: 1mM HU 2 hours, 2 hours wash, 20µM MMC 2 hours, analysed after 48 hours) [%]	viability (UMUC-3 cells [4]; 1mM HU 20 hours, wash, after 2 hours Gem (EC50) 8 hours) [%]
CO[C@@]12[C@H](COC(N)=O)C3=C(C(=O)C(C)=C(N)C3=O)N1C[C@@H]1N[C@@H]12 [MMC, Mitomycin C]	13.4	21.4	5 to 20	20	10	–	–	–	–	–	–	–	–	–	–
NC(=O)NO [HU, Hydroxyurea]	4.8	8.1	–	–	–	5.9	48.6	approximately 6 fold	57.0	approximately 3 fold	greater than 50%	no significant influence	71.3	86.1	–
Nc1ccn([C@@H]2O[C@H](CO)[C@@H](O)C2(F)F)c(=O)n1 [Gem, Gemcitabine]	–	–	–	–	–	22.2	–	–	–	–	–	–	–	–	50.9
